Experimental data taken from patent US11306337B2, “Polypeptides having hydrolytic activity on 1-kestose in the presence of sucrose but lacking sucrase (invertase) activity, polynucleotides encoding same and methods of producting and using same in industrial sucrose production from 1-kestose” (CTC—Centro de Tecnologia Canavieira S.A., priority 2015, dated 2022).

T1: Saccharomyces cerevisiae invertase (Saccharomyces cerevisiae, UniProt P00724)
T1 sequence (P00724 20-532): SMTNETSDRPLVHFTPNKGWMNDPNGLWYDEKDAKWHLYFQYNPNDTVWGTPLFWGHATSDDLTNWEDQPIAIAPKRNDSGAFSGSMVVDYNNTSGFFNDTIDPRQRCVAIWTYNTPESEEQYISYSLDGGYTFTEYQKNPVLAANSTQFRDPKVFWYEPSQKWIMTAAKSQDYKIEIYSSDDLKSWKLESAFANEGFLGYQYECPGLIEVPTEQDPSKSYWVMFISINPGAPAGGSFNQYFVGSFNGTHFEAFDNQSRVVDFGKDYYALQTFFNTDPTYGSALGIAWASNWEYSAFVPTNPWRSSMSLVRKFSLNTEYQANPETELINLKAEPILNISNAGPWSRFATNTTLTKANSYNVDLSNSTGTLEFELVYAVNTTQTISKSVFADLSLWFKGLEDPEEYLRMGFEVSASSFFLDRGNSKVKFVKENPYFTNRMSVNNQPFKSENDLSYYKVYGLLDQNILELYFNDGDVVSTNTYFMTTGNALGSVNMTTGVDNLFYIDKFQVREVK


Experiments:
[1] = target: T1, Saccharomyces cerevisiae invertase; conditions: cited from earlier work; for Activity: substrate hydrolysed by S. cerevisiae invertase, Sainz-Polo et al., 2013; for Activity of S. cerevisiae invertase with the oligosaccharide as substrate: Sainz-Polo et al. 2013
[2] = cited from earlier work
[3] = Sucrose inhibition assay of 1-kestose hydrolysis by partially purified recombinant 1-FEH targets (HPAEC-PAD, fructose released); type: biochemical; conditions: 380 mM sucrose; 10 mM 1-kestose, 1 hour, 30° C., pH6.0
Method: The enzymes A, B, C and D were expressed in Pichia pastoris KM71H strain with a fusion GFP protein at C-terminal in 300 mL of culture media. After 48-hour induction with 0.5% (v/v) […] of methanol, the recombinant proteins were partially purified by precipitation with ammonium sulphate at 70% of saturation, followed by solubilization with sodium phosphate buffer 50 mM pH6.0. The partially purified proteins were concentrated and analyzed by SDS-PAGE and blue-light transluminator for GFP fluorescence. The enzymatic activity assays of the partially purified enzymes were evaluated using 10 mM 1-kestose as substrate, 50 uL of enzyme and sucrose as inhibitor ranging from zero to 380 mM, in a 100 μL-reaction buffered with sodium phosphate 50 mM pH6.0. The reactions were carried for 1 hour at 30° C. and stopped by heating at 95° C. for 5 minutes. The reactions were than diluted to 4 mL with ultrapure water and analyzed high-pressure anion-exchange chromatography with pulsed amperometric detection (HPAEC-PAD, Dionex, Sunnyvale, Calif., USA). Enzyme relative activity was determined by the amount of fructose released.
After identifying that the chosen targets are active against 1-kestose but not sucrose, we performed sucrose inhibition studies in which the amount of enzyme and substrate were fixed and increasing concentrations of sucrose were added to the reaction. […]

[4] = 10 mM sucrose, Verhaest et al., 2007

| Molecule | Activity [1] [µmol/min/mg] | Activity of S. cerevisiae invertase with the oligosaccharide as substrate [1] | further results |
| --- | --- | --- | --- |
| OC[C@H]1O[C@@](CO)(OC[C@@]2(O[C@H]3O[C@H](CO)[C@@H](O)[C@H](O)[C@H]3O)O[C@H](CO)[C@@H](O)[C@@H]2O)[C@@H](O)[C@@H]1O [1-Kestose, β-D-fructofuranosyl-(2→1)-β-D-fructofuranosyl α-D-glucopyranoside] | 102 ± 11 |  |  |
| OC[C@H]1O[C@H](OC[C@H]2O[C@H](O[C@]3(CO)O[C@H](CO)[C@@H](O)[C@@H]3O)[C@H](O)[C@@H](O)[C@@H]2O)[C@H](O)[C@@H](O)[C@H]1O [Raffinose] | 187 ± 8 |  |  |
| OC[C@H]1O[C@@](CO)(O[C@H]2O[C@H](CO)[C@@H](O)[C@H](O)[C@H]2O)[C@@H](O)[C@@H]1O [Sucrose, sucrose] | 520 ± 20 | highest efficiency |  |
| OC[C@H]1O[C@@](CO)(OC[C@@]2(OC[C@@]3(O[C@H]4O[C@H](CO)[C@@H](O)[C@H](O)[C@H]4O)O[C@H](CO)[C@@H](O)[C@@H]3O)O[C@H](CO)[C@@H](O)[C@@H]2O)[C@@H](O)[C@@H]1O [Nystose] | 36 ± 1 | hydrolyzed at a much lower rate |  |
| Inulin | 2.5 ± 0.1 | No significant activity |  |
| enzyme D: Cichorium intybus 1-FEH IIa with W82 homologue replaced by leucine; also reported by Verhaest et al. 2007 (protein, Fructan 1-exohydrolase precursor (W120L)) QQIEQPYRTGYHFQPPSNWMNDPNGPMLYQGVYHFFYQYNPYAATFGDVIIWGHAVSYDLVNWIHLDPAIYPTQEADSKSCLSGSATILPGNIPAMLYTGSDSKSRQVQDLAWPKNLSDPFLREWVKHPKNPLITPPEGVKDDCFRDPSTAWLGPDGVWRIVVGGDRDNNGMAFLYQSTDFVNWKRYDQPLSSADATGTWECPDFYPVPLNSTNGLDTSVYGGSVRHVMKAGFEGHDWYTIGTYSPDRENFLPQNGLSLTGSTLDLRYDYGQFYASKSFFDDAKNRRVLWAWVPETDSQADDIEKGWAGLQSFPRALWIDRNGKQLIQWPVEEIEELRQNQVNLQNKNLKPGSVLEIHGIAASQADVTISFKLEGLKEAEVLDTTLVDPQALCNERGASSRGALGPFGLLAMASKDLKEQSAIFFRVFQNQLGRYSVLMCSDLSRSTVRSNIDTTSYGAFVDIDPRSEEISLRNLIDHSIIESFGAGGKTCITSRIYPKFVNNEEAHLFVFNNGTQNVKISEMSAWSMKNAKFVVDQSVKSAA |  |  | inhibition by sucrose (text) [2, 4]: 0%; inhibition by sucrose (words) [2, 4]: no longer inhibited; % inhibition by sucrose ([2]; 10 mM sucrose): 0% with 10 mM; Sucrose inhibition ([2]; Weak / Strong, Table 3): Weak; inhibition by sucrose as described in the literature ([2]; no sucrose concentration stated): strongly inhibited; inhibition by sucrose [3]: 52% |
